# Measured values: PMC8950700 (Pharmaceuticals, 2022)
# Legend:
# H1N1 virus [1] = assay type: cell-based, influenza A virus; details: 5 µM
# H5N1V116A virus [2] = assay type: cell-based, influenza A virus
# H5N1V116A virus [3] = assay type: cell-based, influenza A virus; details: read-out: IC50 (50% Inhibitory Concentration) H5N1V116A
# H5N1N295S virus [4] = assay type: cell-based, influenza A virus
# in vitro = details: dog
# H1N1 virus [5] = assay type: cell-based
# [6] = tested on: A/chicken/Egypt/B13825A/2017 (H5N1wild); assay: microbe, parasite or virus in culture; assay type: cell-based; details: read-out: IC50 (50% Inhibitory Concentration) H5N1wild
# H5N1wild virus [7] = details: mouse, in vivo
# [8] = tested on: A/California/04/2009 (H1N1); assay: microbe, parasite or virus in culture; assay type: cell-based; details: read-out: IC50 (50% Inhibitory Concentration) H1N1
# H5N1N295S virus [9] = assay type: cell-based, influenza A virus; details: read-out: IC50 (50% Inhibitory Concentration) H5N1N295S
# H5N1V116A virus [10] = assay type: cell-based, influenza A virus; remark: listed apart in the source
# H5N1wild virus [11] = assay: microbe, parasite or virus in culture; assay type: cell-based
# H1N1 virus [12] = details: mouse, in vivo
# H5N1N295S virus [13] = assay type: cell-based, influenza A virus; remark: listed apart in the source
# H5N1wild virus [14] = assay type: cell-based
structure (smiles),measurement,setting,value
"CC(=O)N[C@H]1[C@H]([C@H](O)[C@H](O)CO)OC(C(=O)O)=C[C@@H]1N=C(N)N [zanamivir, reference compound]","viral inhibition in the count of plaques, H1N1",H1N1 virus [1],96.5%
same,"inhibition in the viral HA titer, H5N1V116A",H5N1V116A virus [2],not more than 80%
same,IC50,H5N1V116A virus [3],127 µM
same,"viral inhibition in the count of plaques, H5N1N295S",H5N1N295S virus [4],31%
same,CC50 at 72 h,in vitro,589 µM
same,"inhibition in the viral HA titer, H1N1",H1N1 virus [5],not more than 80%
same,IC50,[6],10.4 µM
same,"viral titer in lung tissue (TCID50), H5N1wild",H5N1wild virus [7],reduced the titration
same,IC50,[8],1.65 µM
same,IC50,H5N1N295S virus [9],15 µM
same,"viral inhibition in the count of plaques, H5N1V116A",H5N1V116A virus [10],60%
same,"viral inhibition in the count of plaques, H5N1wild",H5N1wild virus [11],69.2%
same,mortality after infection with H1N1,H1N1 virus [12],40%
same,"viral titer in lung tissue (TCID50), H1N1",H1N1 virus [12],reduced the titration
same,"virus shedding in the nasal wash (EID50), H1N1",H1N1 virus [12],significantly reduced the viral titer
same,"inhibition in the viral HA titer, H5N1N295S",H5N1N295S virus [13],not more than 25%
same,"inhibition in the viral HA titer, H5N1wild",H5N1wild virus [14],not more than 25%
